Experimental data: patent publication US10300096B2, “Use of adenoviruses and nucleic acids that code for said viruses” (priority 2003, dated 2019)

Tests used:
Assay type in all cases: cell-based
U373 tumour cells [1] = test: Replication of dl520 after administration of Trichostatin A, Southern blot; settings: 0.25, 0.5 and 0.75 μM Trichostatin A 24 hours before infection with 10 pfu dl520/cell, compared to untreated controls
Procedure: In order to test the effect of Trichostatin A on adenoviral replication, 10^6 U373 tumour cells were plated in 10 cm^2 Petri dishes. After 24 hours 0, 0.25, 0.5 and 0.75 μM Trichostatin A was added. After another 24 hours the cells were infected with 10 pfu dl520/cell.
After 3 days of incubation in medium without Trichostatin DNA was isolated. Subsequently 2 μg DNA were digested with restriction enzyme Kpn I and a Southern Blot analysis performed. A part of the adenoviral genome (position: 22734-24235) generated by means of PCR was used as a probe.

[2] = tested on: coxsackievirus-adenovirus-receptor (CAR) on U373 cells; test: CAR expression by Facs-analysis; settings: 1 μM Trichostatin for 24 hours; 11.3% without treatment
Procedure: 200,000 U373 cells were plated in 6 well plates. After 24 hours the cells were cultivated with 1 μM Trichostatin for 24 hours. After another 24 hours the cells were isolated. Subsequently, analysis of CAR expression was performed according to a standard protocol using Facs-analysis and the primary antibody anti-CAR clone RmcB from the company Upstate, and a rabbit anti-mouse FITC as secondary antibody (company DAKO).

U373 tumour cells [3] = test: Replication of dl520 after addition of Irinotecan, Southern blot; settings: 5 μM Irinotecan 24 hours before infection with 10 pfu/cell dl520, compared to untreated control
Procedure: In order to determine the effect of Irinotecan on adenoviral replication 10^6 U373 tumour cells were plated in 10 cm^2 Petri dishes. In a first reaction 5 μM Irinotecan was added after 24 hours. After another 24 hours the cells were infected with 10 pfu/cell dl520. After incubation of 3 days without Irinotecan DNA was isolated in accordance with the procedure described in example 10.
In a parallel reaction the thus prepared U373-cells were not pre-incubated with Irinotecan. After 48 hours of cultivating the cells without Irinotecan, they were infected with 10 pfu/cell dl520 and subsequently incubated without Irinotecan for another 3 days. DNA was isolated as described above.
Subsequently […] were digested with restriction enzyme Kpn I and a Southern Blot analysis performed. A part of the adenoviral genome (position: 22734-24235) generated by means of PCR was used as a probe.

HeLa cells = test: Oncolytic assay with daunorubicine and dl520, crystal violet; settings: 40 ng/ml daunorubicine 3 hours before infection
Procedure: (§1) In the practising of the oncolytic assays the following procedure was followed: 200,000 cells (HeLa and U2OS, respectively) were plated into each well of a 6 well plate. On the next day 40 ng/ml (final concentration) of daunorubicine were added. After 3 hours of incubation the cells were infected with 10 and 30 pfu dl520/cell, respectively. Subsequently, the cells were incubated in cytostatic free medium. After 3-5 days the cells were stained using crystal violet.

U2OS cells = test: as above; settings: 40 ng/ml daunorubicine 3 hours before infection
Procedure: as §1

For CC(/C=C/C(=O)NO)=C\[C@@H](C)C(=O)c1ccc(N(C)C)cc1 [Trichostatin A], the “viral replication (dl520, Southern blot)” value (U373 tumour cells [1]) was “significantly increased” and the CAR-positive cells [2] was 56.2%.

In the case of CCc1c2c(nc3ccc(OC(=O)N4CCC(N5CCCCC5)CC4)cc13)-c1cc3c(c(=O)n1C2)COC(=O)[C@]3(O)CC [Irinotecan], the “adenoviral replication (dl520, Southern blot)” value (U373 tumour cells [3]) is reported as “significantly increased”.

For COc1cccc2c1C(=O)c1c(O)c3c(c(O)c1C2=O)C[C@@](O)(C(C)=O)C[C@@H]3O[C@H]1C[C@H](N)[C@H](O)[C@H](C)O1 [daunorubicine], the “effect on replication of dl520” value (HeLa cells) was “induces the replication of dl520” and the “effect on replication of dl520” value (U2OS cells) was “induces the replication of dl520”.
